# Patent US20230390274A1 (EPIRIUM BIO INC., priority 2020, published 2023)
# Read-outs that look alike come from different tables or passages of the source.
# Target: 15-PGDH/HPGD (Homo sapiens (Human), UniProt P15428)
# Experiment: hPGDH inhibitor screening biochemical assay
# Procedure: A hydroxyprostaglandin dehydrogenase inhibition screening biochemical assay can be performed to assess the synthesized inhibitors provided herein. Provided herein is an exemplary biochemical assay for hPGDH inhibitor screening.
# The in vitro biochemical assay can be performed in white, 384 plates in total 20 μl reaction volume consisting of 10 nM of 15-PGDH/HPGD (R&D System #5660-DH), 15 μM Prostaglandin E2 (Sigma, Cat #P5640-10MG) and 0.25 mM β-Nicotinamide adenine dinucleotide sodium salt (Sigma, Cat #N0632-5G) made in reaction buffer (50 mM Tris-HCl, pH 7.5, 0.01% Tween 20) at 10-point dose response curve for test/tool compounds. Briefly, 5 μl (4×) of compounds solution and 5 μl (final concentration, 10 nM) of enzyme solution is added to white 384 well plates and incubated for 10 mins at 37° C. 5 μl (4×) of Prostaglandin E2 and 5 μl (4×) of β-Nicotinamide adenine dinucleotide sodium salt is added to the wells and incubated for 10 mins at rt. Fluorescence is recorded at ex/em=340 nm/485 nm. The percentage (%) inhibition of enzyme activity was determined relative to […] (1% DMSO) and IC50 was calculated using GraphPad prism software (four parameter-variable slope equation).
# [1] = 10 nM 15-PGDH/HPGD, 15 μM PGE2, 0.25 mM NAD, read-out: hPGDH: Average IC50
# [2] = Table 1, PGDH inhibitors with a 6-5 ring core, read-out: hPGDH: IC50
# 15-PGDH/HPGD, sequence (P15428 whole entry): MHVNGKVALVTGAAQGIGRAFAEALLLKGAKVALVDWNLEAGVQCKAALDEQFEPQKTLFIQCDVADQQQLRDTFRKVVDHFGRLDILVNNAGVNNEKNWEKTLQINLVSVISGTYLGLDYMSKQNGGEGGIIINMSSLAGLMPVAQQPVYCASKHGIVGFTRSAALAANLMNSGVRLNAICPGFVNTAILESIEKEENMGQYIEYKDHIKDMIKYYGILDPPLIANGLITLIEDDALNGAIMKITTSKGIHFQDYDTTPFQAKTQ
SMILES,IC50 [1],IC50 [2]
O=C(c1cnc2c(c1)ncn2-c1cccc(Cl)c1)N1CCCCC1 [drawing 106],–,12.8 nM
O=C(c1ccc2c(c1)ncn2-c1cccc(Cl)c1)N1CC2CC2C1 (centres unmarked),–,116 nM
O=C(c1ccc2c(c1)ncn2-c1cccc(Cl)c1)N1CCCCC1 [drawing 98],–,2.7 nM
O=C(c1ccc2c(c1)ncn2-c1cccc(Cl)c1)N1CCCCCC1 [drawing 101],–,3.2 nM
O=C(c1ccc2c(c1)ncn2-c1cccc(Cl)c1)N1CCCC1,–,274 nM
O=C1CCN(C(=O)c2ccc3c(c2)ncn3-c2cccc(Cl)c2)C1 [drawing 88],–,4540 nM
O=C(c1ccn2c(-c3cccc(Cl)c3)cnc2c1)N1CCCCC1 [drawing 93],–,5.7 nM
O=C(c1cnc2c(ccn2-c2cnccn2)c1)N1CCCCC1 [drawing 81],–,0.6 nM

# The remaining lines, values ahead:
IC50 [1],IC50 [2],SMILES
< 100 nM,–,COc1ccc(-n2ccc3cc(C(=O)N4CCC(F)CC4)cnc32)cc1 [A-142]
< 100 nM,–,O=C(c1cnc2c(ccn2-c2cnccn2)c1Cl)N1CCC(F)CC1 [A-172]
< 100 nM,–,NC(=O)c1cncc(-n2ccc3cc(C(=O)N4CCC(F)CC4)cnc32)c1 [A-346]
< 100 nM,–,"N#Cc1ccc(-n2ccc3cc(C(=O)N4CC[C@H](F)C4)cnc32)cc1 (single isomer, unassigned) [A-340]"
< 100 nM,–,"Cc1nc(-c2ccc(-n3c(CCC(C)(C)O)cc4cc(C(=O)N5CCC(F)(F)CC5)cnc43)cc2)no1 [A-337, (4,4-difluoropiperidin-1-yl)(2-(3-hydroxy-3-methylbutyl)-1-(4-(5-methyl-1,2,4-oxadiazol-3-yl)phenyl)-1H-pyrrolo[2,3-b]pyridin-5-yl)methanone]"
< 100 nM,–,N#Cc1cc(-n2ccc3cc(C(=O)N4CCC(F)(F)CC4)cnc32)cnc1O [A-286]
≥ 1000 nM,–,"CS(=O)(=O)n1ccc2cc(C(=O)N3CCCCC3)cnc21 [A-110, (1-(methylsulfonyl)-1H-pyrrolo[2,3-b]pyridin-5-yl)(piperidin-1-yl)methanone]"
< 100 nM,–,"CCC(CC)NC(=O)c1ccc(-n2ccc3cc(C(=O)N4CCC(F)(F)CC4)cnc32)cn1 [A-239, 5-(5-(4,4-difluoropiperidine-1-carbonyl)-1H-pyrrolo[2,3-b]pyridin-1-yl)-N-(pentan-3-yl) picolinamide]"
< 100 nM,–,O=C(c1cnc2c(c1)c(Cl)cn2-c1ccc2c(c1)OC(F)(F)O2)N1CCCCC1 [A-168]
< 100 nM,–,"Cc1cncc(-n2cc(Cl)c3cc(C(=O)N4CCC(F)CC4)cnc32)n1 [A-296, (3-chloro-1-(6-methylpyrazin-2-yl)-1H-pyrrolo[2,3-b]pyridin-5-yl)(4-fluoropiperidin-1-yl)methanone]"
< 100 nM,–,"CC(C)(C(N)=O)c1cncc(-n2ccc3cc(C(=O)N4CCC(F)(F)CC4)cnc32)c1 [A-277, 2-(5-(5-(4,4-difluoropiperidine-1-carbonyl)-1H-pyrrolo[2,3-b]pyridin-1-yl)pyridin-3-yl)-2-methylpropanamide]"
< 100 nM,–,CC(C)(O)CNC(=O)c1cc(Cl)cc(-n2ccc3cc(C(=O)N4CCC(F)(F)CC4)cnc32)c1 [A-293]
< 100 nM,–,Nc1cc(-n2ccc3cc(C(=O)N4CCCCC4)cnc32)ccn1 [A-154]
< 100 nM,–,"COc1ccc(-n2cnc3cc(C(=O)N4CCCCC4)ccc32)cc1Cl [A-36, (1-(3-chloro-4-methoxyphenyl)-1H-benzo[d]imidazol-5-yl)(piperidin-1-yl)methanone]"
< 100 nM,–,COc1ccc(-n2ccc3cc(C(=O)N4CCC(F)CC4)cnc32)cn1 [A-61]
100 to 1000 nM,–,"COc1cccc(-c2cn(C)c3cc(C(=O)N4CCC(F)CC4)cnc23)c1 [A-307, (4-fluoropiperidin-1-yl)(3-(3-methoxyphenyl)-1-methyl-1H-pyrrolo[3,2-b]pyridin-6-yl)methanone]"
< 100 nM,–,O=C(c1cnc2c(c(Cl)cn2-c2cnccn2)c1Cl)N1CCC(F)CC1 [A-173]
< 100 nM,–,"Cc1c(C(=O)N2CCC(F)CC2)cnc2c1ccn2-c1ccc(C(N)=O)cc1 [A-202, 4-(5-(4-fluoropiperidine-1-carbonyl)-4-methyl-1H-pyrrolo[2,3-b]pyridin-1-yl)benzamide]"
